Patent US8993616B2, “(aza)indole derivative and use thereof for medical purposes” (Kissei Pharmaceutical Co., Ltd., priority 2007, dated 2015)

molecular target: Xanthine oxidase (from bovine milk, Sigma) (Bos taurus (Bovine), UniProt P80457); assay: Xanthine oxidase inhibitory activity; format: biochemical; conditions: xanthine substrate, 10 minutes at room temperature, absorbance at 290 nm
Description: (1) Preparation of Test Compounds
Test compounds were dissolved in DMSO (Wako) at 40 mM concentration and then diluted to intended concentrations with phosphate-buffered saline (PBS).
(2) Method for Measurement
Xanthine oxidase (from bovine milk, Sigma) was prepared with phosphate-buffered saline (PBS) at 0.02 units/mL, and then the solution was added to 96 well plates at 50 μL/well. In addition, test compounds diluted with PBS were added at 50 μL/well. Xanthine (Wako) at 200 μM prepared with PBS was added at 100 μL/well, and the reaction was conducted for 10 minutes at room temperature. Absorbance at 290 nm was measured using a microplate reader SpectraMax Plus 384 (Molecular device). The absorbance under a condition without xanthine is 0%, and control without test compounds is 100%. Fifty % inhibitory concentration of a test compound (IC50) was calculated (Table 60). Ex. No in the table indicates Example number.

Chain of Xanthine oxidase (from bovine milk, Sigma) (P80457 whole entry): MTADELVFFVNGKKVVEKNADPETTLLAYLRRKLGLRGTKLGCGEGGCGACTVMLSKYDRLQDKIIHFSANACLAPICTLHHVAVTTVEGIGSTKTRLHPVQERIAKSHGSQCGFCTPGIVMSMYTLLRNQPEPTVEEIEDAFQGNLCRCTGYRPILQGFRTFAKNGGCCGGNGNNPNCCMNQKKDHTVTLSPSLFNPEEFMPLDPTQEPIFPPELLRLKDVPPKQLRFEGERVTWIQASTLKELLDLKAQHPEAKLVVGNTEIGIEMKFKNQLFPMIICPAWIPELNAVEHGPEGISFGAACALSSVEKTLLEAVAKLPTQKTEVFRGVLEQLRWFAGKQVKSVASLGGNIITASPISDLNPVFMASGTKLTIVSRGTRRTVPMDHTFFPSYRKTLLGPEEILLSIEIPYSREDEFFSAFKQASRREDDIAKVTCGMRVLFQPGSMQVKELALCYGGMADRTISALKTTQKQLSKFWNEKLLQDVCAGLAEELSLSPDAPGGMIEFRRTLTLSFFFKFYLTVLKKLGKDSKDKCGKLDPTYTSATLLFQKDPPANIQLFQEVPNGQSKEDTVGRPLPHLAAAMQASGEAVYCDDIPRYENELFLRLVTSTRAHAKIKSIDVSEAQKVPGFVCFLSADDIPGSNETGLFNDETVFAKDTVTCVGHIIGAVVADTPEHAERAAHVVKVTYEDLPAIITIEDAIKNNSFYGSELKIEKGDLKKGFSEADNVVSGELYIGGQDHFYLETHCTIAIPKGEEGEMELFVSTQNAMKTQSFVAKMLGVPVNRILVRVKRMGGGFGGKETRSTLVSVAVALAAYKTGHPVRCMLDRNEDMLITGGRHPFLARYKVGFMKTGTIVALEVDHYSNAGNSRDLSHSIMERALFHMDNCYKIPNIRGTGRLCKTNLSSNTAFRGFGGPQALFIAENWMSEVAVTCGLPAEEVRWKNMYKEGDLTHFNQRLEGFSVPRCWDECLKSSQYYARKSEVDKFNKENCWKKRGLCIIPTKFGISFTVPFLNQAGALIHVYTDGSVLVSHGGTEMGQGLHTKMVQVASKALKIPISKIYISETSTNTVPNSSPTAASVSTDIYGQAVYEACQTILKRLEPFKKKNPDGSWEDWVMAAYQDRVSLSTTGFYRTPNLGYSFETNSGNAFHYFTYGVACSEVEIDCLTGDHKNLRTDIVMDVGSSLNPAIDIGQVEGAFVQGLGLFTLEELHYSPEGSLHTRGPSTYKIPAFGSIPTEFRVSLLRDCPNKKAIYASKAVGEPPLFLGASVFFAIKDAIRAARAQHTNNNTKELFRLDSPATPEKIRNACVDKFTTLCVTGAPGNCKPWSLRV

SMILES | IC50 [nM]
N#Cc1cn(-c2ccc(C(=O)O)cc2)c2ccc(OCCOc3ccccc3)cc12 [Example 154] | 19
N#Cc1cn(-c2ccc(C(=O)O)c(O)c2)c2cc(-c3ccccc3)ccc12 [Example 199] | 49.2
N#Cc1cn(-c2ccc(C(=O)O)c(O)c2)c2cc(OCc3cccc(Cl)c3)ccc12 [Example 231] | 29.1
N#Cc1cn(-c2ccc(C(=O)O)c(O)c2)c2cc(OCc3ccccc3Cl)ccc12 [Example 230] | 67.1
Cc1ccc2c(c1)c(C#N)cn2-c1nc(C)c(C(=O)O)s1 [Example 187] | 16.4
Cc1ccc2c(c1)c(C#N)cn2-c1ccc(C(=O)O)cn1 [Example 143] | 24.4
CC(C)COc1ccc2c(c1)c(C#N)cn2-c1ccc(C(=O)O)c(O)c1 [Example 205] | 27.6
COc1cc2c(C#N)cn(-c3ccc(C(=O)O)cc3)c2cc1F [Example 287] | 16
N#Cc1cn(-c2ccc(C(=O)O)c(O)c2)c2cccc(OCc3ccccc3)c12 [Example 202] | 61.8
COCOc1cc(-n2cc(C#N)c3ccccc32)ccc1C(=O)O [Example 308] | 45
N#Cc1cn(-c2ccc(C(=O)O)c(O)c2)c2cc(OCC3CCC3)ccc12 [Example 234] | 86.5
COc1ccc(-c2ccc3c(c2)c(C#N)cn3-c2ccc(C(=O)O)cc2)cc1 [Example 15, 4-[3-Cyano-5-(4-methoxyphenyl)indol-1-yl]benzoic acid] | 15.5
N#Cc1cn(-c2ccc(C(=O)O)cc2)c2cccc(-c3ccccc3)c12 [Example 286] | 58
N#Cc1cn(-c2ccc(C(=O)O)cc2)c2cccc(OCc3ccccc3)c12 [Example 19, 4-(4-Benzyloxy-3-cyanoindol-1-yl)benzoic acid] | 96
CCOCCOc1ccc2c(c1)c(C#N)cn2-c1ccc(C(=O)O)cc1 [Example 174] | 24.4
CN(C)C(=O)c1ccc2c(c1)c(C#N)cn2-c1ccc(C(=O)O)cc1 [Example 34, 4-(3-Cyano-5-dimethylaminocarbonylindol-1-yl)benzoic acid] | 48.3
COCCOc1ccc2c(C#N)cn(-c3ccc(C(=O)O)cc3)c2c1 [Example 185] | 40.2

SMILES | IC50 [nM]
N#Cc1cn(-c2ccc(C(=O)O)cc2)c2ccc(OCc3ccccc3)cc12 [Example 151] | 22.4
COCCNC(=O)c1ccc2c(c1)c(C#N)cn2-c1ccc(C(=O)O)cc1 [Example 162] | 16.5
N#Cc1cn(-c2ccc(C(=O)O)cc2)c2ccc(O)cc12 [Example 152] | 15.8
N#Cc1cn(-c2ccc(C(=O)O)c(O)c2)c2cc(OCc3ccccc3)ccc12 [Example 5, 4-(6-Benzyloxy-3-cyanoindol-1-yl)-2-hydroxybenzoic acid] | 33.6
N#Cc1cn(-c2ccc(C(=O)O)cc2)c2cc(-c3ccccc3)ccc12 [Example 155] | 112
Cc1nc(-n2cc(C#N)c3ccccc32)sc1C(=O)O [Example 47, 2-(3-Cyanoindol-1-yl)-4-methylthiazole-5-carboxylic acid] | 58.6
CN(C)c1cc2c(C#N)cn(-c3ccc(C(=O)O)cc3)c2cc1C(F)(F)F [Example 300] | 96
CN(C)c1ccc(-c2ccc3c(c2)c(C#N)cn3-c2ccc(C(=O)O)cc2)cc1 [Example 165] | 111
N#Cc1cn(-c2ccc(C(=O)O)cc2)c2ccc(OCc3ccsc3)cc12 [Example 176] | 18.3
CN(C)CCCOc1ccc2c(c1)c(C#N)cn2-c1ccc(C(=O)O)cc1 [Example 177] | 16.4
N#Cc1cn(-c2ccc(C(=O)O)cc2)c2cc(OCCO)ccc12 [Example 186] | 49.7
N#Cc1cn(-c2ccc(C(=O)O)c(O)c2)c2ccc(-c3ccccc3)cc12 [Example 198] | 54.6
Cc1cc2c(cc1OCc1ccccc1)c(C#N)cn2-c1ccc(C(=O)O)cc1 [Example 149] | 38
N#Cc1cn(-c2ccc(C(=O)O)cc2)c2ccc(CO)cc12 [Example 32, 4-(3-Cyano-5-hydroxymethylindol-1-yl)benzoic acid] | 91.1
N#Cc1cn(-c2ccc(C(=O)O)c(N)c2)c2ccccc12 [Example 42, 2-Amino-4-(3-cyanoindol-1-yl)benzoic acid] | 175
N#Cc1cn(-c2ccc(C(=O)O)c(O)c2)c2cc(OCc3ccc(Cl)cc3)ccc12 [Example 232] | 42.5

Stronger by IC50, values ahead:

IC50 [nM] | SMILES
12 | N#Cc1cn(-c2ccc(C(=O)O)c(O)c2)c2c(F)cccc12 [Example 318]
9.4 | CCCOc1ccc2c(C#N)cn(-c3ccc(C(=O)O)c(O)c3)c2c1 [Example 220]
12.1 | N#Cc1cn(-c2ccc(C(=O)O)cc2)c2ccc(/C=C/C(=O)O)cc12 [Example 17, 4-[5-((E)-2-Carboxyvinyl)-3-cyanoindol-1-yl]benzoic acid]
10 | COc1c(C)cc2c(c(C#N)cn2-c2ccc(C(=O)O)cc2)c1C [Example 288]
11 | CC(C)Oc1ccc2c(c1)c(C#N)cn2-c1ccc(C(=O)O)c(O)c1 [Example 209]
14 | COc1cc2c(C#N)cn(-c3ccc(C(=O)O)cc3)c2cc1Cl [Example 293]
5.1 | N#Cc1cn(-c2ccc(C(=O)O)c(O)c2)c2cc(O)ccc12 [Example 212]
8 | N#Cc1cn(-c2ccc(C(=O)O)cc2)c2ccc(-c3ccc(O)c(Cl)c3)cc12 [Example 179]
7.5 | CCOc1ccc2c(C#N)cn(-c3ccc(C(=O)O)c(O)c3)c2c1 [Example 223]
11 | CCOc1ccc2c(c1)c(C#N)cn2-c1ccc(C(=O)O)c(O)c1 [Example 214]
7.5 | N#Cc1cn(-c2ccc(C(=O)O)c(O)c2)c2cc(OCCCO)ccc12 [Example 228]
7.1 | N#Cc1cn(-c2ccc(C(=O)O)c(O)c2)c2cccc(O)c12 [Example 203]
10 | CC(C)Oc1cc2c(C#N)cn(-c3ccc(C(=O)O)cc3)c2cc1F [Example 303]
10.5 | COCCOc1ccc2c(C#N)cn(-c3ccc(C(=O)O)c(O)c3)c2c1 [Example 215]
11.3 | N#Cc1cn(-c2ccc(C(=O)O)cc2)c2ccc(C(=O)NCc3ccccc3)cc12 [Example 160]
10.4 | N#Cc1cn(-c2ccc(C(=O)O)c(O)c2)c2cc(OCCCN)ccc12 [Example 227]
14.5 | N#Cc1cn(-c2ccc(C(=O)O)c(O)c2)c2cc(C(F)(F)F)ccc12 [Example 195]
9 | N#Cc1cn(-c2ccc(C(=O)O)c(O)c2)c2ccc(Cl)cc12 [Example 197]
12.2 | COCCOc1ccc2c(c1)c(C#N)cn2-c1ccc(C(=O)O)cc1 [Example 153]
7.3 | N#Cc1ccc2c(C#N)cn(-c3ccc(C(=O)O)c(O)c3)c2c1 [Example 207]
7.5 | CS(=O)(=O)Nc1ccc(-c2ccc3c(c2)c(C#N)cn3-c2ccc(C(=O)O)cc2)cc1 [Example 183]
12 | Cc1cc2c(C#N)cn(-c3ccc(C(=O)O)cc3)c2cc1F [Example 298]

IC50 [nM] | SMILES
7.4 | N#Cc1cn(-c2ccc(C(=O)O)c(O)c2)c2cc(OCC(=O)O)ccc12 [Example 216]
7 | CC(=O)NCCOc1ccc2c(C#N)cn(-c3ccc(C(=O)O)c(O)c3)c2c1 [Example 12, 4-[6-(2-Acetylaminoethyloxy)-3-cyanoindol-1-yl]-2-hydroxybenzoic acid]
9.7 | CC(C)Oc1ccc2c(C#N)cn(-c3ccc(C(=O)O)c(O)c3)c2c1 [Example 224]
10.9 | N#Cc1cn(-c2ccc(C(=O)O)cc2)c2ccc(OCCO)cc12 [Example 171]
13 | Cc1cc2c(C#N)cn(-c3ccc(C(=O)O)cn3)c2cc1F [Example 307]
11.9 | COc1cccc(-c2ccc3c(c2)c(C#N)cn3-c2ccc(C(=O)O)cc2)c1 [Example 156]
5.5 | N#Cc1cn(-c2ccc(C(=O)O)c(O)c2)c2ccc(O)cc12 [Example 201]
8 | N#Cc1cn(-c2ccc(C(=O)O)cc2)c2ccc(OCCCO)cc12 [Example 172]
5.4 | N#Cc1cn(-c2ccc(C(=O)O)c(O)c2)c2cc(Cl)ccc12 [Example 190]
6.7 | COc1ccc2c(c1)c(C#N)cn2-c1ccc(C(=O)O)c(O)c1 [Example 196]
14.2 | CN(C)CCOc1ccc2c(C#N)cn(-c3ccc(C(=O)O)c(O)c3)c2c1 [Example 235]
7.2 | N#Cc1cn(-c2ccc(C(=O)O)c(O)c2)c2cc(OCC3CC3)ccc12 [Example 233]
7 | N#Cc1cn(-c2ccc(C(=O)O)c(O)c2)c2ccc(OCCO)cc12 [Example 210]
13.9 | Cc1ccc2c(c1)c(C#N)cn2-c1ccc(C(=O)O)c(O)c1 [Example 189]
10 | CN(C)CCCOc1ccc2c(C#N)cn(-c3ccc(C(=O)O)c(O)c3)c2c1 [Example 226]
7.1 | N#Cc1cn(-c2ccc(C(=O)O)c(O)c2)c2cc(OCCCCO)ccc12 [Example 229]
12.9 | CS(=O)(=O)c1ccc(COc2ccc3c(c2)c(C#N)cn3-c2ccc(C(=O)O)cc2)cc1 [Example 178]
12.5 | N#Cc1cn(-c2ccc(C(=O)O)c(O)c2)c2cc(OCCN)ccc12 [Example 9, 4-[6-(2-Aminoethyloxy)-3-cyanoindol-1-yl]-2-hydroxybenzoic acid]
14.6 | N#Cc1cn(-c2ccc(C(=O)O)cc2)c2ccc(OCc3cccs3)cc12 [Example 27, 4-[3-Cyano-5-(thiophen-2-ylmethyloxy)indol-1-yl]benzoic acid]
9.5 | N#Cc1cn(-c2ccc(C(=O)O)cc2)c2ccc(-c3cccs3)cc12 [Example 158]
6.2 | COCCOc1ccc2c(c1)c(C#N)cn2-c1ccc(C(=O)O)c(O)c1 [Example 211]
